Data from US8314085B2, “Agent for overcoming resistance to anti-cancer agent” (Nippon Chemiphar Co., Ltd., priority 2006, dated 2012).
Counter-ions that a name gives are not always drawn. Like-named read-outs stand apart in the source and are kept apart here.

Legend:
BCRP [1] = target: T1, BCRP (Homo sapiens, UniProt Q9UNQ0); test: BCRP-mediated methotrexate transport in membrane vesicles of BCRP-expressing Sf9 cells; settings: for inhibitory action on BCRP-mediated methotrexate transport: at concentration of 100 μmol/L
T1 sequence (Q9UNQ0 1-655): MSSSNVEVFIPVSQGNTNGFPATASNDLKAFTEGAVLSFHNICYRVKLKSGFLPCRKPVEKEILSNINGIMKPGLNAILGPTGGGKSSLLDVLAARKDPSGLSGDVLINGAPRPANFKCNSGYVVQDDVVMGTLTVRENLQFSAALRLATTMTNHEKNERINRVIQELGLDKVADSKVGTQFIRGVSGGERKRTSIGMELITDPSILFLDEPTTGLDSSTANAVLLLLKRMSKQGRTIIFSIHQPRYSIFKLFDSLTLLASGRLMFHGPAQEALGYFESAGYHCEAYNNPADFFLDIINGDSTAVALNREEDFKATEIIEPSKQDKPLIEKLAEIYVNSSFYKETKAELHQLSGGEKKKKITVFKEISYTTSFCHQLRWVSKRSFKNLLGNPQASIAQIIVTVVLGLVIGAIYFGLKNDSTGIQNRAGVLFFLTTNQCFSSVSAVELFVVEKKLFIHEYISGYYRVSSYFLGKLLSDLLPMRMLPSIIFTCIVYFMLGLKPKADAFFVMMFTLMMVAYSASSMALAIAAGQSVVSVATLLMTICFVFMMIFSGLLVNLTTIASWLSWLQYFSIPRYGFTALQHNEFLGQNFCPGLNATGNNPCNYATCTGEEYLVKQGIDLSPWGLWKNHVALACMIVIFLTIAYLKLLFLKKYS
Method: (§1) In the experiment, plasma membrane was prepared from BCRP-expressing Sf9 cells.
(§2) The activity of methotrexate transport was measured using 96 wells-plate according to the following method.
(§3) Preparation and Composition of Reaction Solution
(§4) 50 μL of solution containing sucrose (250 mmol/L) and Tris/Hepes (10 mmol/L, pH: 7.4)
(§5) 30 μL of solution containing ATP (3.33 mmol/L), creatine phosphate (33.3 mmol/L), and MgCl2 (33.3 mmol/L)
(§6) (or solution containing creatine phosphate (33.3 mmol/L) and MgCl2 (33.3 mmol/L))
5 μL of creatine kinase (2 mg/mL)
(§7) 2 μL of [^3H]methotrexate (10 mmol/L, final concentration: 200 μmol/L)
(§8) 10 μL of membrane sample of BCRP-expressing Sf9 cells (total protein: 50 μg)
(§9) The reaction solution was incubated at 37° C. for 20 minutes. 1 mL of ice-cooled solution containing sucrose (250 mmol/L), EDTA (2 mmol/L), and Tris/Hepes (10 mmol/L, pH: 7.4) was quickly added to the reaction solution to stop the reaction. Each 270 μL of the mixed solution was poured into each well of MultiScreen™ (Millipore), and sucked. The wells were washed four times with 200 μL of ice-cooled solution containing sucrose (250 mmol/L) and Tris/Hepes (10 mmol/L, pH: 7.4). The radioactivity trapped on a filter of each well was measured. The amount of methotrexate transported into the membrane vesicle was calculated from the radioactivity.

[2] = test system: BCRP-overexpressing cells (Flp-In-293/BCRP); test: Influence on anti-cancer agent (SN-38) resistance in BCRP-overexpressing cells, MTT assay; assay type: cell-based; settings: Flp-In-293/ABCG2 cells; for degree of reversing resistance to SN-38: at the concentration of 5 μmol/L, 72 hours
Flp-In-293/ABCG2 cells = test: Toxicity to the cells (viability, MTT assay); settings: at or up to the concentration of 10 μmol/L
BCRP [3] = target: T1, BCRP
Method: as §1, §2, §3, §4, §5, §6
5 μL of creatine kinase (2 mg/mL)
as §7, §8, §9

IC50 (BCRP [1]) [µM]	SMILES	effect of overcoming resistance to SN-38 (in words) [2]	degree of reversing resistance to SN-38 [2]	toxicity to the cells / effect on viability (Flp-In-293/ABCG2 cells)	other results
0.77	N#Cc1cc(-c2n[nH]c(-c3ccncc3)n2)ccn1 [FYX-051, 4-[5-pyridin-4-yl-1H-[1,2,4]triazol-3-yl]pyridine-2-carbonitrile]	–	about 39%	–	–
0.66	N#Cc1cc(-c2nc3cncnc3s2)ccc1Oc1ccccc1 [Compound 4, 2-(3-cyano-4-phenoxyphenyl)thiazolo[5,4-d]pyrimidine]	–	–	–	–

Second part, the compound before the results:

SMILES	IC50 (BCRP [1]) [µM]	effect of overcoming resistance to SN-38 (in words) [2]	degree of reversing resistance to SN-38 [2]	toxicity to the cells / effect on viability (Flp-In-293/ABCG2 cells)	other results
N#Cc1cc(-c2nc3cncnc3s2)ccc1Oc1ccc(F)cc1 [Compound 2, 2-[3-cyano-4-(4-fluorophenoxy)phenyl]thiazolo[5,4-d]pyrimidine]	1.1	reversed the resistance of Flp-In-293/ABCG2 cells to SN-38 in a concentration-dependent manner	about 90%	–	–
Cc1nc(-c2ccc(OCC(C)C)c(C#N)c2)sc1C(=O)O [TMX-67, Febuxostat]	0.25	–	about 82%	did not exhibit toxicity to the cells	–
N#Cc1cc(-c2nc3c(O)ncnc3s2)ccc1Oc1ccccc1 [Compound 5, 2-(3-cyano-4-phenoxyphenyl)-4-hydroxythiazolo[5,4-d]pyrimidine]	–	–	about 96%	did not exhibit toxicity to the cells	–
CC(C)(C)COc1ccc(-n2cc(C(=O)O)cn2)cc1C#N [Compound Y-700, 1-[3-cyano-4-(2,2-dimethylpropoxy)phenyl]-1H-pyrazole-4-carboxylic acid]	–	did not exhibit an effect of overcoming the resistance in the concentration not exhibiting toxicity to the cells	–	–	–
N#Cc1cc(-c2nc3c([O-])ncnc3s2)ccc1Oc1ccc(F)cc1.[K+] [Compound 1, potassium salt of 2-[3-cyano-4-(4-fluorophenoxy)phenyl]-4-hydroxythiazolo[5,4-d]pyrimidine]	–	reversed the resistance of Flp-In-293/ABCG2 cells to SN-38 in a concentration-dependent manner	about 96%	did not affect viability	IC50 (BCRP [1]; read-out: IC50 (concentration inhibiting methotrexate transport by 50%), [3H]methotrexate 200 μmol/L, 37° C., 20 minutes): 0.46 µM
O=c1[nH]c(=O)c2c[nH]nc2[nH]1 [oxypurinol]	–	did not exhibit an effect of overcoming resistance to SN-38	–	–	inhibitory action on BCRP-mediated methotrexate transport (BCRP [1]): did not exhibit an inhibitory action
Oc1ncnc2[nH]ncc12 [allopurinol]	–	did not exhibit an effect of overcoming resistance to SN-38	–	did not exhibit toxicity to the cells	inhibitory action on BCRP-mediated methotrexate transport (BCRP [1]): did not exhibit an inhibitory action
N#Cc1cc(-c2nc3c(O)ncnc3s2)ccc1Oc1ccccc1 [Compound 3, potassium salt of 2-(3-cyano-4-phenoxyphenyl)-4-hydroxythiazolo[5,4-d]pyrimidine]	–	–	–	–	IC50 (BCRP [3]): 0.23 µM
